Assay results taken from paper PMC6150205, “Semisynthesis, an Anti-Inflammatory Effect of Derivatives of 1β-Hydroxy Alantolactone from Inula britannica” (Molecules : A Journal of Synthetic Chemistry and Natural …, 2017).

Assays:
Assay type in all cases: cell-based
[1] = system: LPS-induced NO production in RAW 264.7 macrophages; assay: Inhibition of LPS-induced NO production in RAW 264.7 macrophages (Griess reagent); conditions: for IC50: LPS-induced RAW 264.7 macrophages, 4 h pretreatment, then 48 h with 2 μg/mL LPS
Experimental: (§1) Then, 100-μL aliquots of the exponentially growing RAW 264.7 cells were seeded in 96-well culture plates at 1 × 10^4 cells/well at 37 °C for overnight in DMEM medium with 0.1% FBS. The culture medium was replaced by fresh free-FBS medium and cells were pretreated with different concentrations (0, 1, 3, 10, 30, 100, 300, 1000 μM) of samples for 4 h. Thereafter, the medium with samples was removed and then incubated for 48 h with or without 2 μg/mL LPS 10% FBS DMEM. The nitrite concentration (NO production) in the culture supernatant was measured using Nitric Oxide assay kit mainly containing Griess reagent. The absorbance was measured at 540 nm using a microplate reader (M5). The amount of NO was calculated from a standard curve created using sodium nitrite with known concentrations. The cell viability was evaluated by SRB colorimetric assay.

[2] = Cytotoxicity / cell viability by SRB colorimetric assay; conditions: mouse, RAW 264.7 cells, inhibition of cell viability of samples-treated RAW264.7 cells
Experimental: as §1

NF-κB = NF-κB luciferase reporter assay in TNF-α-induced RAW264.7 cells; conditions: 8 h treatment, TNF-α 50 ng/mL; for inhibition of the NF-κB pathway (result in words): 1-50 µM; for inhibition at 20 µM: Mus musculus, read-out: NF-κB-luciferase inhibitory percentage
Experimental: RAW 264.7 cells (10,000 cells/well) were placed in a 96-well plate and the cells were then transfected with pNF-κB-Luc expression plasmid using a mixture of plasmid and lipofectamin 2000 PLUS in the Opti-MEM® I Reduced Serum Medium according to manufacturer’s instructions (Life Technologies, Carlsbad, CA, USA). After 12 h, the cells were co-incubated with the active samples (1, 5, 10, 20, 50 µM) and TNF-α. Parthenolide (P) was used as positive control. NF-κB was induced by adding TNF-α (50 ng/mL, delivered in PBS) to the treated wells and the induced control wells. After an additional 8 h, Bright-Glo luciferase reagent (Beyotime) was added to each well (100 μL) and the plate was allowed to stand for two minutes. Luminescence measurements with a relative light unit (RLU) were then obtained using a Fluoroskan Ascent multiple microplate reader (Molecular Device, Sunnyvale, CA, USA). Each experiment was performed in biological triplicate (at minimum) with three technical replicates per experiment.
Figure 3 Compound 1 inhibited TNF-α-induced NF-κB activation by NF-κB-luciferase inhibition assay in RAW264.7 cells. 1 and parthenolide (P, positive control) were dosed to RAW264.7 cells containing a stably transfected NF-κB luciferase reporter and stimulated with TNF-α (50 ng/mL) for 8 h (except for a non-induced control, Non-Ind). […] Mean ± standard deviation values are shown with more than three replicates.

[3] = system: NF-κB p65 and p50 subunit; assay: Western blotting of p65 and p50 phosphorylation in TNF-α-induced RAW264.7 cells; conditions: 50, 10 and 1 µM, 8 h, TNF-α 50 ng/mL
Experimental: RAW 264.7 cells were seeded in a 24-well plate at 5 × 10^4 cells/well. After cells adherence for overnight, the test compound 1 (50, 10 and 1 µM) or parthenolide (10 µM) and TNF-α (50 ng/mL) were added to the wells and incubated for 8 h. Then, cell pellets were collected and lysed with RIPA lysis buffer containing 0.5 mM phenylmethylsulfonyl fluoride (PMSF) and a protease inhibitor cocktail. The protein concentration of cell samples was analyzed by using the BCA method. Equal amount proteins of each sample were electrophoresed on 12% separating gel and 4% stacking gel and electrotransferred onto an NC membrane. After incubation with appropriate primary and secondary antibodies of p65 and p50, protein blots were detected by using ECL solution and ChemiDoc XRS+ imaging system (Bio-Rad, Hercules, CA, USA). β-actin was used as loading control.  Figure 4 Compound 1 blocks TNF-α-induced NF-κB activation through p65 and p50 phosphorylation in RAW264.7 cells. After treatment with 1 and parthenolide (P) at the indicated concentrations for 8 h, total cell lysates were tested by western blot experiments.

Structure (SMILES): Cc1ccc(C2=NO[C@]3(C2)C(=O)O[C@@H]2C[C@@]4(C)C(=O)CC[C@H](C)C4=C[C@@H]23)cc1 [Compound 6]
- IC50 ([1]; Mus musculus, RAW264.7): > 1000 µM

Structure (SMILES): C=C1C(=O)O[C@@H]2C[C@]3(C)C(=C[C@H]12)[C@@H](C)CC[C@H]3OC(C)=O [Compound 3]
- IC50 at 4 h [2]: > 50 µM
- IC50 ([1]; Mus musculus, RAW264.7): 46.5 ± 5.6 µM

Structure (SMILES): C=C1C(=O)O[C@@H]2C[C@]3(C)C(=C[C@H]12)[C@@H](C)CC[C@H]3O [Compound 1, 1β-Hydroxy alantolactone]
- inhibition of the NF-κB pathway (result in words) (NF-κB): dose-dependent inhibition
- inhibition at 20 µM (NF-κB): 75%
- IC50 at 4 h [2]: > 50 µM
- IC50 ([1]; Mus musculus, RAW264.7): 5.61 ± 0.34 µM
- potency against NO production relative to 2–4 ([1]; ratio of IC50 values, 1 versus 2–4): 6.5–8.4 fold
- TNF-α-induced phosphorylation of NF-κB p65 and p50 subunit (result in words) [3]: dose-dependently suppressed

Structure (SMILES): C=C1C(=O)O[C@@H]2C[C@]3(C)C(=C[C@H]12)[C@@H](C)CC[C@H]3OC(=O)CCC(=O)O [Compound 4]
- IC50 at 4 h [2]: > 50 µM
- IC50 ([1]; Mus musculus, RAW264.7): 39.6 ± 5.7 µM

Structure (SMILES): C=C1C(=O)O[C@@H]2C[C@@]3(C)C(=O)CC[C@H](C)C3=C[C@H]12 [Compound 2]
- inhibition at 20 µM (NF-κB): 55%
- IC50 at 4 h [2]: 34.5 ± 5.8 µM
- IC50 ([1]; Mus musculus, RAW264.7): 36.1 ± 3.8 µM

Structure (SMILES): N=C(N)NN [Aminoguanidine, reference compound]
- IC50 [1]: 10.9 ± 1.5 µM

Structure (SMILES): C[C@@H]1C(=O)O[C@@H]2C[C@]3(C)C(=C[C@H]12)[C@@H](C)CC[C@H]3O [Compound 5]
- IC50 ([1]; Mus musculus, RAW264.7): > 1000 µM

Structure (SMILES): C=C1C(=O)O[C@H]2[C@H]1CC/C(C)=C/CC[C@@]1(C)O[C@@H]21 [parthenolide, Parthenolide, reference compound]
- inhibition of the NF-κB pathway (result in words) (NF-κB): comparably potent
